Laboratory results: the kinase profiling compilation of Christmann-Franck et al. (2016)

Tests used:
Assay in all cases: KINOMEscan competition binding
Details in all cases: compound 10.0 µM
[1] = system: EGFR (human), P00533 [747-751 del / S ins]
[2] = system: ABL1 (human), P00519 [Y253F]
[3] = system: ABL1 (human), P00519 [H396P]
[4] = system: FLT3 (human), P36888 [D835H]
[5] = system: KIT (human), P10721 [V559D/V654A]
[6] = system: EGFR (human), P00533 [752-759 del]
[7] = system: RET (human), P07949 [M918T]
[8] = system: RET (human), P07949 [V804M]
[9] = system: EGFR (human), P00533 [T790M]
[10] = system: EGFR (human), P00533 [T790M/L858R]
[11] = system: MET (human), P08581 [Y1235D]
[12] = system: KIT (human), P10721 [L576P]
[13] = system: FLT3 (human), P36888 [R834Q]

RET (human), P07949 [M918T], sequence (P07949 whole entry M918T, looked up): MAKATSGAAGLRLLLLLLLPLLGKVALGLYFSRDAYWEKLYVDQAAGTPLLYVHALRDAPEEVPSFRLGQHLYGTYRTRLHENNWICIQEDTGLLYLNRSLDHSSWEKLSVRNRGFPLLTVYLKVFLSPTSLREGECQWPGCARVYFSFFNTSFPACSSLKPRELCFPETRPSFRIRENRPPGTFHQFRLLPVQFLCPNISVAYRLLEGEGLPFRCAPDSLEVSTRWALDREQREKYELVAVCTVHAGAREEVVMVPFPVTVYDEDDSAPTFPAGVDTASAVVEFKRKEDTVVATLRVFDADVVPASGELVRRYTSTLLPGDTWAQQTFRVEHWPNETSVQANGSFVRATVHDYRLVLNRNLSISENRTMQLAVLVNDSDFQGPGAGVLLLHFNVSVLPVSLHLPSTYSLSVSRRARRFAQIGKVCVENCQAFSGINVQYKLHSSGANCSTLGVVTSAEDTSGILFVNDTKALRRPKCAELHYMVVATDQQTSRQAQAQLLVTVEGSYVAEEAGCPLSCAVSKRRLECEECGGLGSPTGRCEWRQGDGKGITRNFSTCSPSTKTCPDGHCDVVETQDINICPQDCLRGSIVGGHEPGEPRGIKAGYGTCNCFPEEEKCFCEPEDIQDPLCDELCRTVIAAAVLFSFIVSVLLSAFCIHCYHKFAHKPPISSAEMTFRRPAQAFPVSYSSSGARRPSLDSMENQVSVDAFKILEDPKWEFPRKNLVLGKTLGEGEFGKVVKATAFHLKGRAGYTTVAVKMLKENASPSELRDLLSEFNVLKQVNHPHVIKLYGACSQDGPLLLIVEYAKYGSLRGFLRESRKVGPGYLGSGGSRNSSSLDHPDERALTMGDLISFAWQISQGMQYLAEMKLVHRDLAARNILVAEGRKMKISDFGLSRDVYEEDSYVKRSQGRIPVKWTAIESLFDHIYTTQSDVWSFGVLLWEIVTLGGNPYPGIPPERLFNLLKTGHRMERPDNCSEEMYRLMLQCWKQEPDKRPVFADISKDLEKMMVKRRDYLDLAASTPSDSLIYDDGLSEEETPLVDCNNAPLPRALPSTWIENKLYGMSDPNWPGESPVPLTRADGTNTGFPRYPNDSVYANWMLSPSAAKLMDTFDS
KIT (human), P10721 [V559D/V654A], sequence (P10721 whole entry V559D/V654A, looked up): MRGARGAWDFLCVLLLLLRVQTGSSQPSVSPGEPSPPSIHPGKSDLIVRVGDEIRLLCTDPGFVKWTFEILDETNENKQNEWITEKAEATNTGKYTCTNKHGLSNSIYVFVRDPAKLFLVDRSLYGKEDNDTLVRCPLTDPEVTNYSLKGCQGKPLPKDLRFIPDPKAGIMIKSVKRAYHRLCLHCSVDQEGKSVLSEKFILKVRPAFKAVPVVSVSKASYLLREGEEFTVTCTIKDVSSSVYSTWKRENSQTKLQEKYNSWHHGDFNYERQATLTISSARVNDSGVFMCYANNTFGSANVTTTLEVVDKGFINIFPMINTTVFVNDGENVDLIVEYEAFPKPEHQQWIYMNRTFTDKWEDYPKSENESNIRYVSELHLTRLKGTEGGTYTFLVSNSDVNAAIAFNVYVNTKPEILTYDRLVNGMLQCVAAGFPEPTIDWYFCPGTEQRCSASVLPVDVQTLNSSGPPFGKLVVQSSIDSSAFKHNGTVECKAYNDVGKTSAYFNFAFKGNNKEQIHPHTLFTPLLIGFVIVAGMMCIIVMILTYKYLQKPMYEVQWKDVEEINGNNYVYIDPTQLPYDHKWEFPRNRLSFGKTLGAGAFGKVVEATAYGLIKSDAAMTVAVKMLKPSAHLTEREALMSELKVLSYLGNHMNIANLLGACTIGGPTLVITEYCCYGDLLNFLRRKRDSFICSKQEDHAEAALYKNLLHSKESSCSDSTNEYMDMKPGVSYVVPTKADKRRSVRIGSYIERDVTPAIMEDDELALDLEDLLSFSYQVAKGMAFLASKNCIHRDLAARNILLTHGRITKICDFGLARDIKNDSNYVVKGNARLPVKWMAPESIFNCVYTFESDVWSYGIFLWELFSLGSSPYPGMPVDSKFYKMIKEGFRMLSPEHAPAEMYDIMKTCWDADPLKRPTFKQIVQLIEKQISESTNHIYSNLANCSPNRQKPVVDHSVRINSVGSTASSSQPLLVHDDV
RET (human), P07949 [V804M], sequence (P07949 whole entry V804M, looked up): as the sequence (P07949 whole entry M918T, looked up) above, with V804M, T918M counted along it
KIT (human), P10721 [L576P], sequence (P10721 whole entry L576P, looked up): as the sequence (P10721 whole entry V559D/V654A, looked up) above, with D559V, L576P, A654V counted along it

SMILES	kinase still bound, per cent of control [1]	kinase still bound, per cent of control [2]	kinase still bound, per cent of control [3]	kinase still bound, per cent of control [4]	kinase still bound, per cent of control [5]	kinase still bound, per cent of control [6]	kinase still bound, per cent of control [7]	kinase still bound, per cent of control [8]	kinase still bound, per cent of control [9]	kinase still bound, per cent of control [10]	kinase still bound, per cent of control [11]	kinase still bound, per cent of control [12]	kinase still bound, per cent of control [13]
COc1cc(C)c(Sc2cnc(NC(=O)c3ccc(CNC(C)C(C)C)cc3)s2)cc1C(=O)N1CCN(C(C)=O)CC1 (stereo unspecified)	100%	100%	100%	14%	100%	100%	32%	100%	–	–	–	–	–
CC1=C(C(=O)Nc2cc3cn[nH]c3cc2F)C(c2ccc(C(F)(F)F)cc2)CC(=O)N1 (stereo unspecified)	81%	72%	–	76%	92%	90%	15%	43%	40%	87%	65%	93%	77%
C[C@@H](Oc1cc(-n2cnc3ccc(CN4CCN(C)CC4)cc32)sc1C(N)=O)c1ccccc1C(F)(F)F	100%	69%	–	10%	100%	100%	100%	100%	54%	78%	98%	54%	20%
CNC(=O)Nc1ccc(-c2nc(N3CC4CCC(C3)O4)c3cnn(C4CCC5(CC4)OCCO5)c3n2)cc1	50%	99%	–	82%	100%	55%	73%	100%	68%	100%	24%	85%	79%
Cn1c(=O)n(-c2ccc(C(C)(C)C#N)cc2)c2c3cc(-c4cnc5ccccc5c4)ccc3ncc21	100%	100%	100%	21%	100%	100%	100%	100%	–	100%	–	100%	–
O=C(NC1CC1)c1cccc(-c2ccc3c(NC(=O)C4CC4)n[nH]c3c2)c1	74%	60%	–	47%	90%	72%	71%	84%	100%	100%	74%	51%	67%
CCCS(=O)(=O)Nc1ccc(F)c(C(=O)c2c[nH]c3ncc(Cl)cc23)c1F	75%	27%	–	43%	19%	73%	40%	89%	48%	90%	100%	6.4%	100%
CCN1CCN(Cc2ccc(NC(=O)c3ccc(C)c(/C=C/c4cnc5[nH]ccc5c4OC)c3)cc2C(F)(F)F)CC1	0%	0.25%	–	0.15%	2.6%	0%	0%	0%	9.9%	77%	79%	0%	50%
Cc1ccc(C(=O)Nc2cccc(C(F)(F)F)c2)cc1Nc1cncc(C(N)=O)c1	100%	100%	100%	100%	18%	100%	100%	100%	–	–	–	–	–
Cc1ccc(NC(=O)c2cccc(C(C)(C)C#N)c2)cc1Nc1ccc2ncn(C)c(=O)c2c1	14%	1.4%	–	60%	1.2%	17%	0.4%	0.15%	79%	99%	100%	0.55%	100%
CCc1nc(-c2cccc(C)c2)c(-c2ccnc(NC(=O)c3ccccc3)c2)s1	–	26%	3%	–	–	–	72%	94%	–	–	–	51%	–

Next, values leading:

kinase still bound, per cent of control [1]	kinase still bound, per cent of control [2]	kinase still bound, per cent of control [3]	kinase still bound, per cent of control [4]	kinase still bound, per cent of control [5]	kinase still bound, per cent of control [6]	kinase still bound, per cent of control [7]	kinase still bound, per cent of control [8]	kinase still bound, per cent of control [9]	kinase still bound, per cent of control [10]	kinase still bound, per cent of control [11]	kinase still bound, per cent of control [12]	kinase still bound, per cent of control [13]	SMILES
0.4%	1.3%	3.6%	100%	9%	0.9%	0.3%	–	–	–	–	–	–	COc1ccc(N(C(=O)Oc2cc(C(=O)Nc3cccc(C(F)(F)F)c3)ccc2C)c2ccnc(Nc3ccc(N4CCN(C)CC4)cc3)n2)c(OC)c1
0.75%	100%	100%	11%	100%	1.2%	100%	100%	–	–	–	–	–	COc1cc(N2CCC(C(N)=O)CC2)ccc1Nc1nc(N)c(Cl)c(Nc2ccccc2S(=O)(=O)C(C)C)n1
95%	0.1%	–	8.8%	100%	98%	0.6%	1.2%	100%	90%	86%	46%	69%	CCN1CCN(Cc2ccc(Nc3ncc4c(n3)N(C)c3ccccc3C(=O)N4C)cc2C(F)(F)F)CC1
90%	62%	–	5.4%	44%	82%	100%	71%	68%	100%	100%	33%	8.4%	C=CC(=O)Nc1cccc(Nc2nc(N[C@H]3CC[C@H](N(C)C)CC3)nc3c2ncn3C(C)C)c1
–	100%	100%	100%	100%	–	100%	100%	–	–	–	–	–	CC[C@@H]1C(=O)N(C)c2cnc(Nc3ccc(C(=O)NC4CCN(C)CC4)cc3OC)nc2N1C1CCCC1
100%	100%	100%	100%	100%	100%	100%	100%	–	–	–	–	–	COc1cc(C(=O)NC2CCN(C)CC2)ccc1Nc1ncc2c(n1)N(C1CCCC1)C(C)CC(=O)N2C (stereo unspecified)
0%	100%	100%	4%	100%	0.25%	100%	100%	–	–	–	–	–	C=CC(=O)Nc1cccc(Oc2nc(Nc3ccc(N4CCN(C)CC4)cc3OC)ncc2Cl)c1
